Experimental data reported in US20100267629A1, “Enterostatin as Therapeutic Agent for Hypoglycemia” (Board of Supervisors of Louisiana State University and …, priority 2006, published 2010).
Read-outs that look alike come from different tables or passages of the source.

What was measured:
C57B1/6 male mice = assay: Blood glucose response to insulin; format: in vivo, mouse
Experimental: Animals: C57B1/6 male mice were purchased from The Jackson Laboratory (Bar Harbor, Me.) at 6 weeks of age. The mice were initially housed in groups of three in acrylic cages in a room with a 12-hour light/dark cycle and with controlled temperature (22 to 23° C.) and with free access to water. The mice were fed a high fat diet (4.78 kcal/g, 56% energy as fat; Research Diets Inc, Brunswick, N.J.). The composition of the diet has been previously described (15). Body weights were measured three time per week. At 8 weeks of age, the mice were switched to single housing.
Peptide Injections: Enterostatin was dissolved in 0.1 ml saline (0.9% NaCl w/v), and given as a single dose of either 5 μg or 25 μg/mouse. Either enterostatin or saline (control) was injected intraperitoneally. In the experiments involving insulin, insulin (0.75 mU/g body weight) or saline (0.1 ml/10 g body weight; control) was injected intraperitoneally.
Enterostatin Effect on Blood Glucose Response to Insulin. To test the effect of enterostatin on the blood glucose response to exogenous insulin, mice were fasted for 4 hours, and insulin (0.75 mU/gm body weight) or saline (0.1 ml/10 gm body weight) was injected intraperitoneally at time zero. Enterostatin (5 or 25 ug/mouse in 0.1 ml saline vehicle) or saline vehicle was also injected intraperitoneally (ip) at time zero. Blood samples were taken from the tail vein immediately before the injections, and then at 15, 30, 45 and 60 minutes afterwards. The samples were assayed for glucose on a glucometer (Ascencia Elite XL, Bayer, Pittsburgh, Pa.).

galanin receptors = details: cited from earlier work
humans = details: cited from earlier work
[1] = test system: SK-N-MC neuroepithelioma cells; details: cited from earlier work
islet cells = details: cited from earlier work
[2] = indirect calorimetry; cited from earlier work
rats [3] = details: cited from earlier work; for Duration of action on feeding: single injection
kappa-opioid receptors = kappa-opioid receptors (Homo sapiens, UniProt P41145); details: cited from earlier work
kappa-opioid receptors, sequence (P41145 whole entry): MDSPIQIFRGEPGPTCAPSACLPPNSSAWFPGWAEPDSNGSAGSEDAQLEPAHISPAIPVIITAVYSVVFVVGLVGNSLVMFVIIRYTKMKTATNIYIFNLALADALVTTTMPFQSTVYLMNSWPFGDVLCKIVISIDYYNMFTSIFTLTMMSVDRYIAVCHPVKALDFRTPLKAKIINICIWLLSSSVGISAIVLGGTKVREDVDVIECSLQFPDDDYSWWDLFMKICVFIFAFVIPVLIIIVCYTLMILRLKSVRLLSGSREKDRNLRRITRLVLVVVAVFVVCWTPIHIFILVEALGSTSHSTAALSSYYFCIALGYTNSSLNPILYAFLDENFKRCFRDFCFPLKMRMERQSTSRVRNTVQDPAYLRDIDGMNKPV

AMPK [4] = assay: pAMPK Western blot in HepG2 cells, 15 min incubation; format: cell-based, human
Experimental: Human liver cells (HepG2 cell line, American Type Culture Collection, Manassas, Va.) were grown and maintained in Dulbecco's modified eagle's medium (Gibco, Carlsbad, Calif.) containing 10% fetal bovine serum, penicillin (100 I.U./ml), and streptomycin (100 μg/ml). The cells were then incubated for 15 min with 5 mM glucose and various concentrations of enterostatin (0.003, 0.01, 0.1, 1, and 3 μM) and/or of its antagonist β-casomorphin (BCM) (0.003, 0.01, 0.1, 1, and 3 μM). After incubation, the cells were lysed and the cytosolic proteins subjected to Western blot analysis for AMPK and pAMPK. The results for pAMPK activity are shown in FIG. 5A (enterostatin) and FIG. 5B (BCM). […] This effect was blocked by the presence of an antibody to the enterostatin receptor (anti F1-ATPase beta subunit).

baboons = details: single-choice diet; cited from earlier work
rats [5] = details: cited from earlier work
[6] = molecular target: brain membrane preparation; details: low affinity binding; cited from earlier work
[7] = molecular target: T1, Neuropeptide Y1 receptors (Homo sapiens, UniProt P25929); details: cited from earlier work
T1 sequence (P25929 1-384): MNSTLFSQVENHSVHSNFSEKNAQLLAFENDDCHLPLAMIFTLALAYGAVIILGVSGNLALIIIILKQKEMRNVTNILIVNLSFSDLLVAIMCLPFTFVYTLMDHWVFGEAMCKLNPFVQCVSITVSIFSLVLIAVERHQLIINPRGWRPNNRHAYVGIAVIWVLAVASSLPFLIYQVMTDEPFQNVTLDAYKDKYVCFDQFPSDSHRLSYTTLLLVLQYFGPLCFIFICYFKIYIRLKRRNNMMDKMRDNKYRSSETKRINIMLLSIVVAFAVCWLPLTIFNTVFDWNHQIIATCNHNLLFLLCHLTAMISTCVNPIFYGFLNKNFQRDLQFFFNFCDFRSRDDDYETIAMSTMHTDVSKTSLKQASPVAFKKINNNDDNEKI

rabbits = details: single-choice diet; cited from earlier work
AMPK [8] = assay: In vivo AMPK activity, Western blot of liver and hypothalamus; set-up: species or system mouse
Experimental: A separate set of mice (n=6/group) were fasted overnight (18 hours) before injection with either saline vehicle (0.1 ml) or enterostatin (5 or 25 ug/mouse) intraperitoneally. The mice were sacrificed by cervical dislocation either at 30 min (certain enterostatin-treated groups) or 60 min (both certain enterostatin- and vehicle-treated groups) after the injection. The tissues of liver and hypothalamus were rapidly dissected and frozen in liquid nitrogen. The tissues were stored at −80 C before processing for AMPK activity. For AMPK activity, the tissues were unfrozen, the cells lysed, and the cytosolic proteins subjected to Western blot analysis for AMPK and pAMPK activity.

[9] = molecular target: T2, beta subunit of ATP synthase (Homo sapiens, UniProt P06576); details: receptor protein on liver plasma membranes; cited from earlier work
T2 construct: from tissue; host or cells: liver plasma membranes
T2 sequence (P06576 48-529): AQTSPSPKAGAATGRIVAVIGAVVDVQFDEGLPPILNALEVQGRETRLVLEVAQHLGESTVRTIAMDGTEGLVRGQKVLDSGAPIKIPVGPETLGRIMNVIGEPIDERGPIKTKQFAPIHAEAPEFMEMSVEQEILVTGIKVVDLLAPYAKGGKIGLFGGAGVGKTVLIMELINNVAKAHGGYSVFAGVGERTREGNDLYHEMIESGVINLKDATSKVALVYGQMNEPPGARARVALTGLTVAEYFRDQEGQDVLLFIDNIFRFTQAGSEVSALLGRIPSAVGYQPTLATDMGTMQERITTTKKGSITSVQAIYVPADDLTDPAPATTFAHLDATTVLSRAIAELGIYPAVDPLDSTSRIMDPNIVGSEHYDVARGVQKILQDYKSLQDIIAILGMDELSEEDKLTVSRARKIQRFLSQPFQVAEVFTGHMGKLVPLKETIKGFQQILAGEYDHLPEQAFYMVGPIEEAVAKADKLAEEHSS
T2 sequence (P25705 44-553 partner): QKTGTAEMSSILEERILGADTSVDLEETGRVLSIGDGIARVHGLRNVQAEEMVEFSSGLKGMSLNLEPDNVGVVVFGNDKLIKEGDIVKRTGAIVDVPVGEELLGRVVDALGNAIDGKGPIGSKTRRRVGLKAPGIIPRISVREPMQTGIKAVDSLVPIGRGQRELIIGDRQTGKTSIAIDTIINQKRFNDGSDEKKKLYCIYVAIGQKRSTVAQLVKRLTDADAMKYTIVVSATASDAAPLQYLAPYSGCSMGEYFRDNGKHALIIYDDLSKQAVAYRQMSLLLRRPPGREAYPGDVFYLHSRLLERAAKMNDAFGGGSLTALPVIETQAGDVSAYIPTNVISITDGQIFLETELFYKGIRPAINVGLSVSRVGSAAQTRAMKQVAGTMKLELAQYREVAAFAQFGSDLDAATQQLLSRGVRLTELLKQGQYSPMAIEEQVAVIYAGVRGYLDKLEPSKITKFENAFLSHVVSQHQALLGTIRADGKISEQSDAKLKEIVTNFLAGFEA
T2 sequence (P36542 26-298 partner): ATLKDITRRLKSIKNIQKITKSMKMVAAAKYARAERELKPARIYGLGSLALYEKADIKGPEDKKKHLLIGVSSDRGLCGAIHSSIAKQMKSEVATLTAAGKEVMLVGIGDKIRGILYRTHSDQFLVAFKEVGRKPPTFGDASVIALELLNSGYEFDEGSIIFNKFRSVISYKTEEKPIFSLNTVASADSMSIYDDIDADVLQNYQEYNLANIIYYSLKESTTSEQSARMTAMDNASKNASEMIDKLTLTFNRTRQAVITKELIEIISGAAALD
T2 sequence (P30049 23-168 partner): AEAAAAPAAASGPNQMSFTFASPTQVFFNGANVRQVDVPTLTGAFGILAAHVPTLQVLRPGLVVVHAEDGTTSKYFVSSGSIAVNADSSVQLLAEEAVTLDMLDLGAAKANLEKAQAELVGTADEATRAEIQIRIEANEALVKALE
T2 sequence (P56381 2-51 partner limits assumed): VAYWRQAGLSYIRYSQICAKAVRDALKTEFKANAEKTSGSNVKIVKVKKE

[10] = three-choice macronutrient diet

For “Enterostatin: aminoterminal pentapeptide of procolipase released when procolipase is converted into colipase (VPDPR; printed: Val-Pro-Asp-Pro-Arg)”, the “Blood glucose level versus zero-time level after insulin” value (C57B1/6 male mice; 5 μg/mouse ip, at 60 min) was “had not returned to zero-time levels”, the “Time for which blood glucose is increased after injection” value (C57B1/6 male mice; conclusion from insulin response test) was ≥ 30 min and the “Delay of initial fall in blood glucose in response to insulin” value (C57B1/6 male mice; higher dose (25 μg/mouse) ip) was 30 min. The “Blood glucose level versus zero-time level after insulin” value (C57B1/6 male mice; higher dose (25 μg/mouse) ip, 45 to 60 min) was “remained below the zero-time level”, the Binding (galanin receptors) was “not to bind” and the Food intake (humans) was “not been found to reduce food intake”. The “Subjective feeling of hunger” value (humans; intravenous injection) was “reduce the subjective feeling of hunger”, the Kd [1] was 40 nM and the “Insulin secretion stimulated by glybenclamide” value (islet cells; glybenclamide 5.0 and 10 μM) was “inhibited insulin secretion”. The “Intracellular cyclic AMP content” value (islet cells; increase produced by U50,488 100 nM) was “reduced the increase in intracellular cyclic AMP content”, the Insulin secretion (islet cells; islets, 16.7 mM glucose, 10^−9 to 10^−5 M, dose-dependent) was “inhibited insulin secretion” and the “Doses inhibiting insulin secretion” value (islet cells; isolated pancreatic islets) was 10^−10 to 10^−6 M. For the same substance, the “Insulin secretion stimulated by U50,488” value (islet cells; kappa-opioid agonist U50,488 100 nM) was “inhibited insulin secretion”, the “Insulin secretion stimulated by TPA” value (islet cells; phorbol 12-myristate-13-acetate 50 and 100 nM) was “inhibited insulin secretion” and the Fat oxidation [2] was “enhance fat oxidation”. The “Duration of action on feeding” value (rats [3]; rats adapted to ad-libitum feeding) was “up to 24 hours”, the “Duration of action on feeding” value (rats [3]; rats adapted to six-hour feeding schedule) was “lasting up to six hours” and the “Carbohydrate or protein intake” value (rats [3]; [10]) was “no effect”. The “Intake of the fat macronutrient” value (rats [3]; [10]) was “reduced intake of the fat macronutrient”, the “Intake of HF and LF diet” value (rats [3]; two-choice high-fat / low-fat diet) was “reduced only intake of the HF diet” and the Binding (kappa-opioid receptors) was “not to bind”. For the same substance, the “Effect on pAMPK in presence of antibody anti F1-ATPase beta subunit” value (AMPK [4]; HepG2, 15 min, 5 mM glucose) was “blocked”, the “AMPkinase activity shown by pAMPK” value (AMPK [4]; HepG2, 15 min, 5 mM glucose, 0.003-3 μM) was “inhibited AMPkinase” and the “β-casomorphin stimulation of pAMPK levels” value (AMPK [4]; HepG2, enterostatin 0.01, 0.1 and 1.0 uM with β-casomorphin) was “reversed dose-dependently”. The Food intake (baboons) was “reduce food intake”, the “Fat deposition and body weight gain” value (rats [5]; chronic icv, HF diets) was “reduction in fat deposition and body weight gain” and the “Daily intake of dietary fat” value (rats [5]; chronic icv, single-choice HF or two-choice HF/LF diet) was “attenuated the daily intake of dietary fat”. For the same substance, the “Energy intake or change in body weight gain” value (rats [5]; chronic treatment, low-fat diet for seven days) was “no significant reduction”, the Kd [6] was 230 nM and the Binding [7] was “not to bind”. The Food intake (rabbits) was “reduce food intake”, the “Hypothalamic pAMPK” value (AMPK [8]; 5 or 25 μg/mouse ip) was “unaltered” and the “Total AMPK” value (AMPK [8]; 5 or 25 μg/mouse ip) was “unaffected”. For the same substance, the “Liver pAMPK levels” value (AMPK [8]; 30 and 60 min after ip injection, even at lower dose (5 μg/mouse)) was “reduced” and the Kd [9] was 2.5 nM.
